Active and inactive are the calls of the source. The rule behind the calls is not given here.
Assays:
[1] = target: T1, Amyloid-beta precursor protein (Homo sapiens, UniProt P05067); conditions: at 10 µM
Description: Inhibition of HFIP pretreated Amyloid beta (1 to 42) (unknown origin) self-induced aggregation at 10 uM incubated for 24 hrs by Thioflavin T-based fluorometric assay

[2] = target: Cholinesterase (Homo sapiens, UniProt P06276)
Description: Inhibition of human serum BChE using butyrylthiocholine iodide as substrate preincubated for 20 mins followed by substrate addition by Ellman's method

[3] = target: T2, Acetylcholinesterase (Homo sapiens, UniProt P22303)
Description: Inhibition of recombinant human AChE using acetylthiocholine iodide as substrate preincubated for 20 mins followed by substrate addition by Ellman's method

[4] = target: T3, Beta-secretase 1 (Homo sapiens, UniProt P56817)
Description: Inhibition of recombinant human BACE-1 using M-2420 as substrate preincubated for 1 hr followed by substrate addition measured after 15 mins by FRET assay

[5] = target: T1, Amyloid-beta precursor protein; test: Inhibition of Amyloid beta (1 to 42) (unknown origin) self-induced aggregation incubated for 24 hrs by Thioflavin T-based fluorometric assay
[6] = target: T3, Beta-secretase 1; test: Inhibition of BACE-1 (unknown origin) using M-2420 as substrate preincubated for 1 hr followed by substrate addition measured after 15 mins by FRET assay
[7] = system: SH-SY5Y; test: Cytotoxicity against human SH-SY5Y cells assessed as reduction in cell viability at 3 to 30 uM after 48 hrs by MTT assay; assay type: cell-based
[8] = target: T2, Acetylcholinesterase; test: Mixed-type inhibition of recombinant human AChE using acetylthiocholine iodide as substrate assessed as enzyme-inhibitor complex by Lineweaver-Burk double reciprocal plot method
[9] = target: T4, Acetylcholinesterase (Torpedo californica, UniProt P04058); test: Competitive inhibition of Torpedo californica AChE using ATCh as substrate assessed as dissociation rate constant preincubated for 90 mins followed by substrate addition by potentiometric titration method; set-up: species or system Tetronarce californica
[10] = target: T4, Acetylcholinesterase; test: Noncompetitive inhibition of Torpedo californica AChE using ATCh as substrate preincubated for 90 mins followed by substrate addition by potentiometric titration method; set-up: species or system Tetronarce californica
[11] = system: Mus musculus; test: Hepatotoxicity in ICR mouse assessed as serum alanine aminotransferase level dosed ig at equimolar dose of 30 mg/kg tacrine after 22 hrs by spectrophotometry analysis (reference value: 40.1 +/- 9.9 U/L); assay type: toxicity, organism-based; conditions: in vivo, po
[12] = target: Acetylcholinesterase (Torpedo californica) (UniProt P04058); conditions: Tetronarce californica; 0.3 nM
[13] = target: T4, Acetylcholinesterase; test: Noncompetitive inhibition of Torpedo californica AChE using ATCh as substrate assessed as dissociation rate constant preincubated for 90 mins followed by substrate addition by potentiometric titration method; set-up: species or system Tetronarce californica
[14] = target: Acetylcholinesterase (Torpedo californica) (UniProt P04058); conditions: Tetronarce californica
Description: Noncompetitive inhibition of Torpedo californica AChE using ATCh as substrate assessed as second order association constant preincubated for 90 mins followed by substrate addition by potentiometric titration method

[15] = system: Mus musculus; test: Hepatotoxicity in ICR mouse assessed as serum aspartate aminotransferase level dosed ig at equimolar dose of 30 mg/kg tacrine after 22 hrs by spectrophotometry analysis (reference value: […] +/- 31.1 U/L); assay type: toxicity, organism-based; conditions: in vivo, po
[16] = target: Acetylcholinesterase (Torpedo californica) (UniProt P04058); conditions: Tetronarce californica; 1 to 10 nM
[17] = system: Mus musculus; assay type: toxicity, organism-based, ICR; conditions: in vivo, po, 30 mg/kg, 8 h
[18] = system: Mus musculus; test: Hepatotoxicity in ICR mouse assessed as elevation in serum aspartate aminotransferase level dosed ig at equimolar dose of 30 mg/kg tacrine after 8 hrs by spectrophotometry analysis relative to control; assay type: toxicity, organism-based; conditions: in vivo, po
[19] = target: T2, Acetylcholinesterase; test: Mixed-type inhibition of recombinant human AChE using acetylthiocholine iodide as substrate assessed as enzyme-substrate-inhibitor complex by Lineweaver-Burk double reciprocal plot method
[20] = system: Mus musculus; test: Hepatotoxicity in ICR mouse assessed as elevation in serum alanine aminotransferase level dosed ig at equimolar dose of 30 mg/kg tacrine after 8 hrs by spectrophotometry analysis relative to control; assay type: toxicity, organism-based; conditions: in vivo, po
[21] = target: Acetylcholinesterase (Torpedo californica) (UniProt P04058); conditions: Tetronarce californica; remark: listed apart in the source
Description: Competitive inhibition of Torpedo californica AChE using ATCh as substrate assessed as second order association constant preincubated for 90 mins followed by substrate addition by potentiometric titration method

[22] = target: T4, Acetylcholinesterase; test: Competitive inhibition of Torpedo californica AChE using ATCh as substrate preincubated for 90 mins followed by substrate addition by potentiometric titration method; set-up: species or system Tetronarce californica
[23] = in vitro; conditions: human, SH-SY5Y cells
Description: Cytotoxicity against human SH-SY5Y cells assessed as cell viability at 30 uM after 48 hrs by MTT assay

[24] = system: Mus musculus; test: Hepatotoxicity in ICR mouse assessed as serum aspartate aminotransferase level dosed ig at equimolar dose of 30 mg/kg tacrine after 8 hrs by spectrophotometry analysis (reference value: 113.3 +/- 30 U/L); assay type: toxicity, organism-based; conditions: in vivo, po
[25] = system: Mus musculus; test: Hepatotoxicity in ICR mouse assessed as serum alanine aminotransferase level dosed ig at equimolar dose of 30 mg/kg tacrine after 36 hrs by spectrophotometry analysis (reference value: 38.1 +/- 8.2 U/L); assay type: toxicity, organism-based; conditions: in vivo, po
[26] = system: Mus musculus; assay type: toxicity, organism-based, ICR; conditions: in vivo, po, 30 mg/kg, 36 h

T3 sequence (P56817 whole entry): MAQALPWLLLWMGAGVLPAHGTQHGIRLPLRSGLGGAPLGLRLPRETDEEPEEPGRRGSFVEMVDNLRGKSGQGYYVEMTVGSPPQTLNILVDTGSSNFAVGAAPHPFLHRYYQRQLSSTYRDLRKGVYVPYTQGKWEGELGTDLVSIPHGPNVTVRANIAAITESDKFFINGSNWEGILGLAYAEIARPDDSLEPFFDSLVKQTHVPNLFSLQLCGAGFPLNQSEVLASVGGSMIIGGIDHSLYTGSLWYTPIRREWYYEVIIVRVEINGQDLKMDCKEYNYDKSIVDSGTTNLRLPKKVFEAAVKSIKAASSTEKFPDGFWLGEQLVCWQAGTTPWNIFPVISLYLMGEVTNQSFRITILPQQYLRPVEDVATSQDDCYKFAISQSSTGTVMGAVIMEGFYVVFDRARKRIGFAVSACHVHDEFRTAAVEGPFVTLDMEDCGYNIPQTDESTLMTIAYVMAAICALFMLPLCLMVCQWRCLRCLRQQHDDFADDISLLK
Cholinesterase, sequence (P06276 whole entry): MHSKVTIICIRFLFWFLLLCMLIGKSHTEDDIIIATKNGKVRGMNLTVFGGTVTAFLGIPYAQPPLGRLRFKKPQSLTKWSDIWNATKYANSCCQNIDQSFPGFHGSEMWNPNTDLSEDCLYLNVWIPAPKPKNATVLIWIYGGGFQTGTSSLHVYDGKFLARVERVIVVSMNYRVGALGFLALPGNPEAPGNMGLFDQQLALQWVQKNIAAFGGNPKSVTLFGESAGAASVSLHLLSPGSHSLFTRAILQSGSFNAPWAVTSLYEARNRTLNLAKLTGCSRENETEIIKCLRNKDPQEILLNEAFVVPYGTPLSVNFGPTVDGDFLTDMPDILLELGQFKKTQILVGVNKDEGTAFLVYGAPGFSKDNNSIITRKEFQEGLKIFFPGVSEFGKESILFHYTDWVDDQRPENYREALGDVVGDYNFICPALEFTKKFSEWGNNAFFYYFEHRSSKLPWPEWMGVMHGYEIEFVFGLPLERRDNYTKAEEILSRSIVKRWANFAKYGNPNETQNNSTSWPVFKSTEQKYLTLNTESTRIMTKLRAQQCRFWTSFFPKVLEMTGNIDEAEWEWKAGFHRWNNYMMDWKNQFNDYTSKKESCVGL
T4 sequence (P04058 whole entry): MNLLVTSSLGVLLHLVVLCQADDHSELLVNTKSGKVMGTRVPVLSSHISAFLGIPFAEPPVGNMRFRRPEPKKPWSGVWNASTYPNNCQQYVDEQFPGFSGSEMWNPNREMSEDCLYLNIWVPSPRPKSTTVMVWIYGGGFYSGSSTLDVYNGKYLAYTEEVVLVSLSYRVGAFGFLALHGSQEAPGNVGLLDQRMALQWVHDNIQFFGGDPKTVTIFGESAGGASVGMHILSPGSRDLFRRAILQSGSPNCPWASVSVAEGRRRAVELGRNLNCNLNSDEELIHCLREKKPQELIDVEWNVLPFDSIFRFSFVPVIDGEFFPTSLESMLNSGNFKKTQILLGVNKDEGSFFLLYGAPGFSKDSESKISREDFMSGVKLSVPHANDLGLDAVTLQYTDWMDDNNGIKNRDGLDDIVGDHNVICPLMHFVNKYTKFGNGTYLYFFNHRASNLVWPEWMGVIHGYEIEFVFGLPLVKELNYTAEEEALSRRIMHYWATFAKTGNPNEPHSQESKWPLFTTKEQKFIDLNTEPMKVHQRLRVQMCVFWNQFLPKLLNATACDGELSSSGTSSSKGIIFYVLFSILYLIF
T1 sequence (P05067 whole entry): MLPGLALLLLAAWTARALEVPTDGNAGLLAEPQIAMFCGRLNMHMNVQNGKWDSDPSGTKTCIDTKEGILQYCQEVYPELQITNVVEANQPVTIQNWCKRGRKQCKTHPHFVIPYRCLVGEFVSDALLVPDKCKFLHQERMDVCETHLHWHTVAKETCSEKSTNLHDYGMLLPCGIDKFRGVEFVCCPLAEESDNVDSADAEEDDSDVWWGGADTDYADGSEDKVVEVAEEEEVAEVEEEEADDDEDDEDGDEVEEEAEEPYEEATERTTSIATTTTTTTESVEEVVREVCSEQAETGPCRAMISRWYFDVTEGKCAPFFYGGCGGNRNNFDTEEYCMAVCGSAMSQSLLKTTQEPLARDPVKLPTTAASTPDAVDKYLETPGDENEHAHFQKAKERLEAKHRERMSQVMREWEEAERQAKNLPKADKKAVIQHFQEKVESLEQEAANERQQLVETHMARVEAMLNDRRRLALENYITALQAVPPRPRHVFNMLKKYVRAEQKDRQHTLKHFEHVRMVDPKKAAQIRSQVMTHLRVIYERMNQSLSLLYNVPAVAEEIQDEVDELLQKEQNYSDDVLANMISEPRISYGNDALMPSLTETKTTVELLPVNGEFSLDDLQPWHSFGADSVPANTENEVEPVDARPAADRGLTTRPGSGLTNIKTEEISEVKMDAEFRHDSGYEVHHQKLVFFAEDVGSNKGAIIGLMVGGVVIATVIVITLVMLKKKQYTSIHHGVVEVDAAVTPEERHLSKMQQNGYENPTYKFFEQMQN
Acetylcholinesterase (Torpedo californica), sequence (P04058 22-564 limits assumed): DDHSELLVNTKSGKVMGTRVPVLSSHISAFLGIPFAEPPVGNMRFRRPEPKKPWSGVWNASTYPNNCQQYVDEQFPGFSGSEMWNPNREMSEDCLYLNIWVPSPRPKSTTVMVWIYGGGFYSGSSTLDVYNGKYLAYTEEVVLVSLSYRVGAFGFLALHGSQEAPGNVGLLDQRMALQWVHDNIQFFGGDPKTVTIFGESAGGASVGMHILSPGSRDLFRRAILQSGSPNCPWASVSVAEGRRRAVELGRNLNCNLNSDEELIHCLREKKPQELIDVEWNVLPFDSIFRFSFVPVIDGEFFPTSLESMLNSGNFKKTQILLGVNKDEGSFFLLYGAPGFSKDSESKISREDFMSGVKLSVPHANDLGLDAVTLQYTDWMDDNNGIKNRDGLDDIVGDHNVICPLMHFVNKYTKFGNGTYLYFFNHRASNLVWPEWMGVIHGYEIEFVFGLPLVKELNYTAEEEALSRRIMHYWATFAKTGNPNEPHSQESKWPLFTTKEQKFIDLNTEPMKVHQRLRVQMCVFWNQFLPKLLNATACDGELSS
T2 sequence (P22303 whole entry): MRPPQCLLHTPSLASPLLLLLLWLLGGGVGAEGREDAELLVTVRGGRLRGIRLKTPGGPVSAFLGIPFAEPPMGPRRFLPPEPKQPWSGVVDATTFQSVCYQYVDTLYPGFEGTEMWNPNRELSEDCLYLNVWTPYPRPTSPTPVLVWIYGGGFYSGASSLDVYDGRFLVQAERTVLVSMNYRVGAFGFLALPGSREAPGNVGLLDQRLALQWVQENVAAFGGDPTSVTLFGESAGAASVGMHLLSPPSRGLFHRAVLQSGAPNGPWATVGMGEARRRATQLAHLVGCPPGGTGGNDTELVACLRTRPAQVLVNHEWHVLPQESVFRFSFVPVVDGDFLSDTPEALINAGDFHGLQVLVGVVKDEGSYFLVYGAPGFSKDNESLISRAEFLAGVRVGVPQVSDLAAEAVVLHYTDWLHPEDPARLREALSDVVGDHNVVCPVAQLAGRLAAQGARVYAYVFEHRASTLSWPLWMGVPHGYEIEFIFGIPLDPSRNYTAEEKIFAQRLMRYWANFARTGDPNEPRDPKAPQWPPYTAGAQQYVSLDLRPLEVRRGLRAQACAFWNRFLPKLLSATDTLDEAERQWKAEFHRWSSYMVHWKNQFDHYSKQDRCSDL

With `COc1cccc2cc(CN(CCCCCCCNc3c4c(nc5ccccc35)CCCCC4)Cc3cc4cccc(OC)c4o3)oc12` the inhibition [1] was 37.3%, the IC50 [2] was 4.87 nM and the IC50 [3] was 199 nM.
For `c1ccc2oc(CNCCCCCCCNc3c4c(nc5ccccc35)CCC4)cc2c1`, the inhibition [1] was 76.2%, the IC50 [2] was 2.54 nM and the IC50 [3] was 10.8 nM.
For `c1ccc2oc(CN(CCCCCCCNc3c4c(nc5ccccc35)CCCC4)Cc3cc4ccccc4o3)cc2c1`, the inhibition [1] was 44.5%, the IC50 [2] was 6.86 nM and the IC50 [4] was 620 nM. It also gave an IC50 [3] of 117 nM.
With `COc1cccc2cc(CNCCCCCCNc3c4c(nc5ccccc35)CCCC4)oc12` the inhibition [1] was 52%, the IC50 [2] was 0.49 nM and the IC50 [3] was 15.3 nM.
For `COc1cccc2cc(C(=O)NCCCCCCCNc3c4c(nc5ccccc35)CCC4)oc12`, the inhibition [1] was 19.6%, the IC50 [2] was 26.1 nM and the IC50 [3] was 993 nM.
In the case of `COc1cccc2cc(C(=O)NCCCCCCNc3c4c(nc5ccccc35)CCC4)oc12`, the inhibition [1] is reported as 32.6%, the IC50 [2] is reported as 80.6 nM and the IC50 [3] is reported as 1680 nM.
With `c1ccc2c(NCCCCCCCNc3c4c(nc5ccccc35)CCCC4)c3c(nc2c1)CCCC3` the inhibition [1] was 50.1% and the IC50 [5] was 8400 nM.
Compound `O=C(NCCCCCCNc1c2c(nc3ccccc13)CCCC2)c1cc2ccccc2o1` has an inhibition [1] of 13.7%, an IC50 [2] of 4.68 nM and an IC50 [3] of 424 nM.
`c1ccc2oc(CN(CCCCCCNc3c4c(nc5ccccc35)CCC4)Cc3cc4ccccc4o3)cc2c1` gave an inhibition [1] of 62.2%, an IC50 [2] of 8.89 nM and an IC50 [3] of 2070 nM.
Compound `NC1=NC(c2ccc(F)cc2)NC(=O)N1` (stereo unspecified) has an IC50 [6] of 18000 nM.
In the case of `O=C(NCCCCCCCNc1c2c(nc3ccccc13)CCC2)c1cc2ccccc2o1`, the inhibition [1] is reported as 10.2%, the IC50 [2] is reported as 30.9 nM and the IC50 [3] is reported as 48.6 nM.
In the case of `COc1cccc2cc(C(=O)NCCCCCCCNc3c4c(nc5ccccc35)CCCC4)oc12`, the inhibition [1] is reported as 42.5%, the IC50 [2] is reported as 7.35 nM and the IC50 [4] is reported as 430 nM. For the same compound, the IC50 [3] was 44.2 nM.
In the case of `COc1cccc2cc(CN(CCCCCCNc3c4c(nc5ccccc35)CCCC4)Cc3cc4cccc(OC)c4o3)oc12`, the inhibition [1] is reported as 44.6%, the IC50 [2] is reported as 0.48 nM and the Activity [7] is reported as “Toxic”. It also gave an IC50 [4] of 190 nM and an IC50 [3] of 260 nM.
Compound `O=C(NCCCCCCNc1c2c(nc3ccccc13)CCC2)c1cc2ccccc2o1` has an inhibition [1] of 18.7%, an IC50 [2] of 15.7 nM and an IC50 [3] of 545 nM.
In the case of `COc1cccc2cc(CNCCCCCCNc3c4c(nc5ccccc35)CCC4)oc12`, the inhibition [1] is reported as 64.1%, the IC50 [2] is reported as 1.3 nM and the IC50 [3] is reported as 63.1 nM.
For `c1ccc2oc(CNCCCCCCNc3c4c(nc5ccccc35)CCC4)cc2c1`, the inhibition [1] was 9.3%, the IC50 [2] was 2.48 nM and the IC50 [3] was 47 nM.
In the case of `O=C(NCCCCCCCNc1c2c(nc3ccccc13)CCCC2)c1cc2ccccc2o1`, the inhibition [1] is reported as 26.2%, the IC50 [2] is reported as 6.9 nM and the Activity [7] is reported as “Toxic”. It also gave an IC50 [3] of 76.9 nM.
Work on `COc1cccc2cc(CNCCCCCCCNc3c4c(nc5ccccc35)CCCCC4)oc12` yielded an inhibition [1] of 31.9%, an IC50 [2] of 1.23 nM and an IC50 [3] of 2.56 nM.
With `COc1cccc2cc(C(=O)NCCCCCCNc3c4c(nc5ccccc35)CCCCC4)oc12` the inhibition [1] was 18.7%, the IC50 [2] was 30 nM and the IC50 [3] was 32.3 nM.
`COc1cccc2cc(CN(CCCCCCNc3c4c(nc5ccccc35)CCC4)Cc3cc4cccc(OC)c4o3)oc12` gave an inhibition [1] of 38.5%, an IC50 [2] of 2.3 nM and an IC50 [3] of 7490 nM.
With `c1ccc2oc(CNCCCCCCCNc3c4c(nc5ccccc35)CCCC4)cc2c1` the Ki [8] was 0.72 nM, the inhibition [1] was 61.3% and the Kd [9] was 0.032 s⁻¹. The IC50 [2] was 2.18 nM, the Ki [10] was 2.1 nM and the Activity [11] was 48.2 U/L. The inhibition [12] was “Active”, the Kd [13] was 0.031 s⁻¹ and the Ka [14] was 1.45 ×10⁷ /M/s. The Activity [15] was 134.5 U/L, the inhibition [16] was “Active” and the Activity [17] was 45.1 U/L. For the same compound, the “fold change (FC)” value [18] was 1.22, the IC50 [4] was 1350 nM and the Ki [19] was 1.04 nM. For the same compound, the “fold change (FC)” value [20] was 1.16, the Ka [21] was 1.45 ×10⁷ /M/s and the Ki [22] was 2.2 nM. For the same compound, the viability at 48 h, 30 µM [23] was 63%, the Activity [24] was 138.3 U/L and the Activity [25] was 42 U/L. The Activity [26] was 114.7 U/L and the IC50 [3] was 0.86 nM.
`c1ccc2oc(CN(CCCCCCCNc3c4c(nc5ccccc35)CCCCC4)Cc3cc4ccccc4o3)cc2c1` gave an inhibition [1] of 39.8%, an IC50 [2] of 17.9 nM and an IC50 [3] of 200 nM.
For `COc1cccc2cc(C(=O)NCCCCCCNc3c4c(nc5ccccc35)CCCC4)oc12`, the inhibition [1] was 40.2%, the IC50 [2] was 10.2 nM and the IC50 [3] was 24.4 nM.
`c1ccc2oc(CN(CCCCCCCNc3c4c(nc5ccccc35)CCC4)Cc3cc4ccccc4o3)cc2c1` gave an inhibition [1] of 30.7%, an IC50 [2] of 12.8 nM and an IC50 [3] of 222 nM.
`COc1cccc2cc(CN(CCCCCCNc3c4c(nc5ccccc35)CCCCC4)Cc3cc4cccc(OC)c4o3)oc12` showed an inhibition [1] of 25%, an IC50 [2] of 2.35 nM and an IC50 [3] of 1040 nM.
For `O=C(NCCCCCCCNc1c2c(nc3ccccc13)CCCCC2)c1cc2ccccc2o1`, the inhibition [1] was 17.3%, the IC50 [2] was 11.6 nM and the IC50 [3] was 323 nM.
With `COc1cccc2cc(C(=O)NCCCCCCCNc3c4c(nc5ccccc35)CCCCC4)oc12` the inhibition [1] was 17.7%, the IC50 [2] was 31.9 nM and the IC50 [3] was 416 nM.
`O=C(NCCCCCCNc1c2c(nc3ccccc13)CCCCC2)c1cc2ccccc2o1` gave an inhibition [1] of 24.2%, an IC50 [2] of 10.8 nM and an IC50 [3] of 308 nM.
